Where a name gives a salt, the structure may show the parent alone. Read-outs that look alike come from different tables or passages of the source.
Columns and labels:
[1] = pH 7.4; see U.S. Pat. No. 8,030,356; cited from earlier work
[2] = HNO yield from N2O headspace analysis after complete decomposition, compared to 2BrPA; format: physicochemical; conditions: for % HNO: 37° C. in PBS (pH 7.4), N2O headspace analysis, reported in comparison to 2BrPA (SEM 5%; n = 3); for HNO production compared to 2BrPA: in words; for HNO yield: of the amount of HNO from 2BrPA
Description: As used herein, a compound is a “nitroxyl donor” if it donates nitroxyl under physiological conditions. As used herein, the presently disclosed nitroxyl donors alternatively may be referred to as “a compound” or “the compound.” Preferably, the nitroxyl donor is capable of donating an effective amount of nitroxyl in vivo and has a safety profile indicating the compound would be tolerated by an individual in the amount necessary to achieve a therapeutic effect. One of ordinary skill in the art would be able to determine the safety of administering particular compounds and dosages to live subjects. One of skill in the art also may determine whether a compound is a nitroxyl donor by evaluating whether it releases HNO under physiological conditions. Compounds are easily tested for nitroxyl donation with routine experiments. Although it is impractical to directly measure whether nitroxyl is donated, several tests are accepted for determining whether a compound donates nitroxyl. For example, the compound of interest can be placed in solution, for example in water, in a sealed container. After sufficient time for disassociation has elapsed, such as from several minutes to several hours, the headspace gas is withdrawn and analyzed to determine its composition, such as by gas chromatography and/or mass spectroscopy. If the gas N2O is formed (which occurs by HNO dimerization), the test is positive for nitroxyl donation and the compound is a nitroxyl donor. The level of nitroxyl-donating ability may be expressed as a percentage of a compound's theoretical maximum. A compound that donates a “significant level of nitroxyl” intends a compound that donates 40% or more or 50% or more of its theoretical maximum amount of nitroxyl. In one variation, the compounds for use herein donate 60% or more of the theoretical maximum amount of nitroxyl. In another variation, the compounds for use herein donate 70% or more of the theoretical maximum amount of nitroxyl. In another variation, the compounds for use herein donate 80% or more of the theoretical maximum amount of nitroxyl. In another variation, the compounds for use herein donate 90% or more of the theoretical maximum amount of nitroxyl. In yet another variation, the compounds for use herein donate between about 70% and about 90% of the theoretical maximum amount of nitroxyl. In yet another variation, the compounds for use herein donate between about 85% and about 95% of the theoretical maximum amount of nitroxyl. In yet another variation, the compounds for use herein donate between about 90% and about 95% of the theoretical maximum amount of nitroxyl.

[3] = Decomposition of 2-bromo-benzenesulfonamidyl-alkylamino carbonates 2 (2BrPA release) in PBS, UV/vis or HPLC; format: physicochemical
Description: The donor 2BrPA produces HNO in high yield at pH 7.4 with a single defined half-life of approximately 2 minutes. See U.S. Pat. No. 8,030,356, to Toscano et al., which is incorporated herein by reference in its entirety. Changing (R) on the trigger amine or the spacer length (n) in 2 makes it possible to tune the effective HNO production rate through controlled 2BrPA release (Table 2). Donors 2, with release rates slower than the half-life of 2BrPA, produce HNO at the rate of cyclization. The decomposition products, rates, and HNO production were analyzed and compared to 2BrPA (Table 2).

[4] = Monitoring of 2d decomposition byproducts by NMR; format: physicochemical; conditions: decomposition of 2d
Description: The cyclized byproduct 3, expected from an HNO forming pathway, from 2d, formed in approximately 60% yield (Scheme 4). The yield of 3 is consistent with the yield of HNO detected (64%) (Table 2). The cyclized product 5 also was identified and formed in approximately 10% yield. Another byproduct formed in approximately 30% yield.

| Compound | % HNO [2] [%] | HNO production compared to 2BrPA [2] | HNO yield [2] [%] | other results |
| --- | --- | --- | --- | --- |
| O=S(=O)(NO)c1ccccc1Br [2BrPA, N-hydroxy-2-bromobenzenesulfonamide] | – | – | – | HNO production [1]: high yield |
| CNCCOC(=O)ONS(=O)(=O)c1ccccc1Br.Cl [Cmpd 2a, 2-Bromo-benzenesulfonamidyl-2-(methylamino)-ethyl carbonate hydrochlor-ide] | 93 | – | – | – |
| Cl.O=C(OCCNCc1ccccc1)ONS(=O)(=O)c1ccccc1Br [Cmpd 2b, 2-Bromo-benzenesulfonamidyl-2-(benzylamino)-ethyl carbonate hydrochlori-de] | 99 | – | – | – |
| CC(C)NCCOC(=O)ONS(=O)(=O)c1ccccc1Br [Cmpd 2c, 2-Bromo-benzenesulfonamidyl-2-(iso-propylamino)-ethyl carbonate hydroc-hloride] | 97 | – | – | half-life ([3]; PBS buffer, pH 7.4, text, fast-releasing derivatives (UV/vis values of Table 2), PBS buffer, read-out: half-life): < 60 s; half-life ([3]; PBS, pH 7.4, 37° C. in PBS (pH 7.4), determined by UV/vis (SEM ± 5%; n = 3), read-out: t1/2 (converted)): 47 s |
| CC(C)(C)NCCOC(=O)ONS(=O)(=O)c1ccccc1Br [Cmpd 2d, 2-Bromo-benzenesulfonamidyl-2-(tert-butylamino)-ethyl carbonate hydrochl-oride] | 64 | significantly lower | 64 | yield of another byproduct [4]: approximately 30%; yield of cyclized byproduct 3 (HNO forming pathway) [4]: approximately 60%; yield of cyclized product 5 [4]: approximately 10%; half-life ([3]; PBS, pH 7.4, 37° C. in PBS (pH 7.4), determined by HPLC (SEM ± 5%; n = 3), read-out: t1/2 (converted)): 2820 s |
| Cl.O=C(OCCNc1ccccc1)ONS(=O)(=O)c1ccccc1Br [Cmpd 2e, 2-Bromo-benzenesulfonamidyl-2-(phenylamino)-ethyl carbonate hydrochlo-ride] | 91 | – | – | – |
| CC(C)NCCCOC(=O)ONS(=O)(=O)c1ccccc1Br.Cl [Cmpd 2h, 2-Bromo-benzenesulfonamidyl-3-(iso-propylamino)-propyl carbonate hydro-chloride] | 30 | significantly lower | 30 | – |
| COc1ccc(NCCOC(=O)ONS(=O)(=O)c2ccccc2Br)cc1 [hydrochloride] | 93 | – | – | half-life ([3]; 37° C. in PBS (pH 7.4), determined by UV/vis (SEM ± 5%; n = 3), read-out: t1/2 (converted)): 50 s; half-life ([3]; pH 7.4, fast-releasing derivatives (UV/vis values of Table 2), PBS buffer, read-out: half-life): 48 s |
| O=C(OCCNc1ccc(Cl)cc1)ONS(=O)(=O)c1ccccc1Br [hydrochloride] | 69 | significantly lower | 69 | half-life ([3]; PBS, pH 7.4, slow-releasing derivatives (HPLC values of Table 2), read-out: half-life): 3000 s |

— patent US9676708B2 (The Johns Hopkins University, priority 2012, dated 2017)
